In patent publication US20120046357A1, “Benzamide and Napthamide Derivatives Inhibiting Nuclear Factor-Kappa (B) - (NK-kB)” (Profectus Biosciences, Inc., priority 2009, published 2012):

How the values were obtained:
Format in all cases: cell-based
[1] = tested on: PGE2 release from RAW264.7 cells; experiment: LPS-stimulated PGE2 release from RAW264.7 cells (immunoassay); details: Mus musculus, 2 h pretreatment, 1 μg/mL LPS 20-24 h, read-out: RAW 264.7 PGE2 release EC50
Procedure: RAW 264.7 cells were seeded at 4×10^4 cells per well n complete growth medium in 96 well white TC plates with clear bottoms one day prior to the assay. The next day the cells were washed once and 100 μL fresh growth media was added. Cells were pretreated with 0.5 μL from a 6 point 200× dilution series of the test compounds in DMSO for 2 hours. Following pretreatment with the drugs, the inflammatory response was induced by adding 5 μL of a 20 μg/mL solution of LPS (Sigma). The cells were incubated in the presence of the drugs and 1 μg/mL LPS for another 20-24 hours. Typically after treatment the total DMSO was […] of the culture volume and the final concentrations of the compounds were approximately: 40, 20, 10, 1, 0.2 and 0 μM depending on the MW of each compound. Modified dilution series were prepared as needed to get adequate dose response curves without changing the % DMSO. Samples were run in duplicate or triplicate and included DMSO treated control wells with and without LPS stimulation. Drugs with a known activity such as Parthenolide or DHMEQ were run as experimental controls. After 20-24 hours LPS activation, the media supernatant was collected from the cells and replaced with fresh media. The supernatant samples were cleared by centrifugation at 1,000×g for 5 minutes, transferred to fresh storage plates, and stored frozen at −30° C.
After determining the appropriate supernatant dilutions experimentally, PGE2 levels in the supernatants were quantified using Parameter™ PGE2 Immunoassay (R&D Systems) according to the manufacturer's protocol. 100 µL of the supernatants diluted in Calibrator Diluent and 50 μL of a primary monoclonal anti-PGE2 antibody were added to the microplate wells pre-coated with a goat anti-mouse Ig capture antibody. Then 50 μL of an HRP conjugated PGE2 competitor was added. Controls included non-specific binding (NSB) wells containing Calibrator Diluent but no primary antibody and a recombinant PGE2 standard dilution series (40-5000 pg/mL). The plates were incubated at room temperature for 2 hours with shaking and then washed 5 times with 400 μL 1× Wash Buffer. Equal volumes of Color Reagents A and B were mixed and 200 μL of this HRP Substrate Solution was added to each well on the plate. The blue color was allowed to develop for 30 minutes and then the reaction was stopped using 50 μL of Stop Solution yielding a yellow color. Absorbance at 450 nm with a reference at 595 nm was recorded using a […] DTX 880 Multimode Detector.
The concentration of PGE2 in the unknown samples was determined from a curve-fit of the PGE2 standard absorbance data and multiplying by the dilution factor. The maximum activity achieved in the absence of the inhibitor (DMSO+LPS treated wells) was arbitrarily given a value of 100%; likewise the minimum activity in the absence of the stimulant (no LPS treated wells) was assigned a value of 0%. Inhibition of the amount of PGE2 released in the drug treated wells was calculated relative to the maximum activation in the DMSO+LPS treated control wells (i.e., % inhibition=100−(drug+LPS treated)/(DMSO+LPS treated)). Dose response curves were used to determine the effective concentration to inhibit 50% of the PGE2 released (IC50) by means of a SigmaPlot macro which fits a sigmoidal dose-response curve to the (log 10) μM concentration versus inhibition. […] This technique yields an objective value for the IC50 provided that 50% inhibition was approached at the concentrations tested.

[2] = tested on: RPMI8226 multiple myeloma cells; experiment: Multiple myeloma growth inhibition (CellTiter-Glo), RPMI 8226; details: 48 hours, FIG. 6
Procedure: (§1) Cryogenically stored RPMI 8226 and U266B1 cells (ATCC, Manassas, Va.) were thawed and cultured according to the vendor's recommendations. Cells were plated in 96-well white-wall tissue culture plates at a concentration of 2×10^5 cells/ml (0.1 ml per well) and incubated overnight at 37° C. in a humidified 5% CO2 atmosphere. Compounds were added to each well at the indicated concentrations (0.5 μl of 200×DMSO stock) and incubated with the cells for 48 hours. Cell viability was detected by adding 100 μl CellTiter-Glo Reagent (Promega, Madison, Wis.) to each well, mixing with pipette, and incubating at room temperature for 10 minutes. Luminescence was read with a DTX 880 Multimode Detector (Beckman Coulter, Fullerton, Calif.). Data was analyzed with SigmaPlot 11 (Systat Software, San Jose, Calif.) software.

[3] = tested on: U266B1 multiple myeloma cells; experiment: Multiple myeloma growth inhibition (CellTiter-Glo), U266B1; details: 48 hours, FIG. 7
Procedure: as §1

Row | SMILES | EC50 [1] | growth inhibition of RPMI8226 multiple myeloma cells [2] | growth inhibition of U266B1 multiple myeloma cells [3]
1 | O=C(NC1=CC(=O)C2OC2C1O)c1ccc(Cl)cc1O (racemic) [Example 2, (±)-4-chloro-2-hydroxy-N-(2-hydroxy-5-oxo-7-oxabicyclo[4.1.0]hept-3-en-3-yl)benzamide] | 5.9 µM |  | 
2 | O=C(NC1=CC(=O)C2OC2C1O)c1ccc(C(F)(F)F)cc1O (racemic) [Example 1, 2-hydroxy-N-(2-hydroxy-5-oxo-7-oxabicyclo[4.1.0]hept-3-en-3-yl)-4-(trifluoromethyl)benzamide] | 13.3 µM |  | 
3 | CN(C)c1ccc(C(=O)NC2=CC(=O)C3OC3C2O)c(O)c1 (racemic) [Example 10, (±)-4-(dimethylamino)-2-hydroxy-N-(2-hydroxy-5-oxo-7-oxabicyclo[4.1.0]hept-3-en-3-yl)benzamide] |  | growth inhibition | growth inhibition
4 | Cc1ccc(C(=O)NC2=CC(=O)C3OC3C2O)c(O)c1 (racemic) [Example 3, (±)-2-hydroxy-N-(2-hydroxy-5-oxo-7-oxabicyclo[4.1.0]hept-3-en-3-yl)-4-methylbenzamide] | 10 µM |  | 

The next lines start with results.

Row | EC50 [1] | SMILES | growth inhibition of RPMI8226 multiple myeloma cells [2] | growth inhibition of U266B1 multiple myeloma cells [3]
5 | 4.6 µM | O=C(NC1=CC(=O)C2OC2C1O)c1cc2ccccc2cc1O (racemic) [Example 7, (±)-3-hydroxy-N-(2-hydroxy-5-oxo-7-oxabicyclo[4.1.0]hept-3-en-3-yl)-2-naphthamide] |  | 
6 | 5.7 µM | COc1ccc(C(=O)NC2=CC(=O)C3OC3C2O)c(O)c1 (racemic) [Example 5, (±)-2-hydroxy-N-(2-hydroxy-5-oxo-7-oxabicyclo[4.1.0]hept-3-en-3-yl)-4-methoxybenzamide] |  | 
7 | 7.2 µM | O=C(NC1=CC(=O)C2OC2C1O)c1cccc(Cl)c1O (racemic) [Example 6, (±)-3-chloro-2-hydroxy-N-(2-hydroxy-5-oxo-7-oxabicyclo[4.1.0]hept-3-en-3-yl)benzamide] |  | 
8 | 2.6 µM | Cc1cccc(C(=O)NC2=CC(=O)C3OC3C2O)c1O (racemic) [Example 4, (±)-2-hydroxy-N-(2-hydroxy-5-oxo-7-oxabicyclo[4.1.0]hept-3-en-3-yl)-3-methylbenzamide] |  | 
